# According to patent US20090048295A1, “SUBSTITUTED 5,6,7,8-TETRAHYDROQUINOLINE DERIVATIVES, COMPOSITIONS, AND METHODS OF USE THEREOF” (priority 2007, published 2009):
# Several values for one entry are separate records, joined by “and”; a condition that tells them apart may be missing. Equal values may be shown once.
# Target: T1, C5a receptor (Homo sapiens, UniProt P21730)
# T1 sequence (P21730 1-350): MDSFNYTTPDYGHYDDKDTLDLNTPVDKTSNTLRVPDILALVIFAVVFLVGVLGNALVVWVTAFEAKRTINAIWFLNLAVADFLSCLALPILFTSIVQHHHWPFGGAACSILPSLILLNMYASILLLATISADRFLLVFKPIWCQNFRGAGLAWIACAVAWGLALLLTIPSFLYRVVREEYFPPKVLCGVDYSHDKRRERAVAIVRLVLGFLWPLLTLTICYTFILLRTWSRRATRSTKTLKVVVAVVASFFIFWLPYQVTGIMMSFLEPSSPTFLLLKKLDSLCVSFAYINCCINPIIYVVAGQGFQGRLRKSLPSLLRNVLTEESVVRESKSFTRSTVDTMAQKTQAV
# Assay: Calcium Mobilization Assay (C5a-induced Ca2+ mobilization, FLIPR, differentiated U937 cells)
# Format: cell-based
# Set-up: endogenous in cells; host or cells: U937 cells differentiated with dibutyryl cAMP
# Details: […] recombinant human C5a, 20 min pre-incubation, multiple values = duplicate experiments, read-out: C5a Induced Ca Mobil. Average IC50
# Procedure: U937 cells (human monocytic cell line) were cultured in RPMI-1640 medium supplemented with 10% fetal bovine serum, 10 mM HEPES, 0.11 g/L pyruvate, 0.29 g/L L-glutamine, 100 IU/mL penicillin G and […] streptomycin. Dibutyryl cAMP (1 mM) was added to induce differentiation 2 or 3 days prior to loading the cells with 4.4 μM Fluo-3AM (Molecular Probes) for 30 min at 37° C. in RPMI medium containing 20 mM HEPES, 0.1% bovine serum albumin (BSA) and 5 mM probenecid. After washing, cells were dissolved at 2×10^6 cells/ml in HBSS buffer (Invitrogen 14190-094) supplemented with 10 mM HEPES, 2.5 mM probenecid and 0.1% BSA (pH=7.4), and sedimented by 1 min centrifugation (1500 rpm) in black 96-well plates (Costar) (200,000 cells/well). A 100× concentration range of test compounds was prepared in DMSO and further diluted in HBSS buffer. U937 cells were pre-incubated with compound for 20 minutes at room temperature (1% DMSO), before recombinant human C5a (Sigma) was added to the cells (1.5 nM). Changes in intracellular free Ca^2+ concentration were measured using the Fluorescent Imaging Plate Reader (FLIPR, Molecular Devices). Fluorescence was recorded every second from 10 seconds before the addition of C5a until 2 min after the addition. The maximal fluorescence obtained during this time frame was used for further calculations.
row,SMILES,IC50
1,CCc1cccc(CC)c1-c1cc(OC)c2c(n1)CCCC2N1CCc2ccc(Cl)cc2C1 (stereo not shown) [Compound 51],1.41 µM
2,CCc1cccc(CC)c1-c1cc(OC)c2c(n1)CCCC2N(C)c1c(C)ccc2ccccc12 (stereo not shown) [Compound 52],1.48 µM
3,CCc1cccc(CC)c1-c1cc(OC)c2c(n1)CCCC2Nc1cc(Cl)ccc1C (stereo not shown) [Compound 53],1.49 µM
4,CCc1cccc(CC)c1-c1cc(OC)c2c(n1)CCCC2N(C)N1CCCc2ccccc21 (stereo not shown) [Compound 54],1.58 µM
5,CCc1cccc(CC)c1-c1cc(OC)c2c(n1)CCCC2N1CCc2c(Cl)cccc2C1 (stereo not shown) [Compound 56],1.69 µM
6,CCN(c1cccc2ccccc12)C1CCCc2nc(-c3ccccc3C(C)C)cc(OC)c21 (stereo not shown) [Compound 57],1.73 µM
7,COc1cc(-c2c(C)cccc2C)nc2c1C(N(C)c1cccc3ccccc13)CCC2 (stereo not shown) [Compound 61],2.19 µM
8,CCc1cccc(CC)c1-c1cc(OC)c2c(n1)CCCC2Nc1ccc(OC)cc1C (stereo not shown) [Compound 63],2.35 µM
9,CCc1cccc(CC)c1-c1cc(OC)c2c(n1)CCCC2N1CCCc2ccccc21 (stereo not shown) [Compound 65],2.43 µM
10,CCc1cccc(CC)c1-c1cc(OC)c2c(n1)CCCC2Nc1cc(-c2ccccc2)ccc1C (stereo not shown) [Compound 66],2.46 µM
11,CCc1cccc(CC)c1-c1cc(OC)c2c(n1)CCCC2N(C)c1cc(Cl)ccc1C (stereo not shown) [Compound 67],2.56 µM
12,CCc1cccc(CC)c1-c1cc(OC)c2c(n1)CCCC2N(C)c1cc(OC)ccc1OC (stereo not shown) [Compound 68],2.57 µM
13,COc1ccc(C)c(N(C)C2CCCc3nc(-c4c(C)cccc4C)cc(OC)c32)c1 (stereo not shown) [Compound 69],3.22 µM
14,CCc1cccc(CC)c1-c1cc(OC)c2c(n1)CCCC2N(C)c1cccc2c1CCC2 (stereo not shown) [Compound 72],3.79 µM
15,CCc1cccc(CC)c1-c1cc(OC)c2c(n1)CCCC2Nc1ccccc1C#N (stereo not shown) [Compound 74],4.9 µM
16,CCN(c1cccc(C)c1C)C1CCCc2nc(-c3c(C)cccc3C)cc(OC)c21 (stereo not shown) [Compound 76],5.13 µM
17,CCc1cccc(CC)c1-c1cc(OC)c2c(n1)CCC[C@@H]2N(C)[C@H]1CCCc2ccccc21 [Compound 77],5.5 µM
18,CCc1cccc(CC)c1-c1cc(OC)c2c(n1)CCCC2N(C(C)=O)c1cccc2ccccc12 (stereo not shown) [Compound 79],6.17 µM
19,CCc1cccc(CC)c1-c1cc(OC)c2c(n1)CCCC2N(C)c1ccc(OC)cc1C (stereo not shown) [Compound 80],6.19 µM
20,CCc1cccc(CC)c1-c1cc(OC)c2c(n1)CCCC2Nc1cccc(OC)c1 (stereo not shown) [Compound 81],7.41 µM
21,CCc1cccc(CC)c1-c1cc(OC)c2c(n1)CCCC2N(C)C1CCCc2ccccc21 (stereo not shown) [Compound 83],8.13 µM
22,CCc1cccc(CC)c1-c1cc(OC)c2c(n1)CCCC2OCc1ccccc1 (stereo not shown) [Compound 86],> 10 µM

# Target: T1, C5a receptor
# Assay: [125I]-C5a Radioligand Binding Assay (competition binding, differentiated U937 cells);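 also: cells preincubated with compound 30 min at room temperature, then 60 min at 4 °C with radioligand, bound counts read by scintillation, nonspecific binding defined with 100 nM C5a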
# Details: read-out: [125I]-C5a Binding % Inhibition 1 μM, test compound 1 μM; [125I]-C5a 0.05 nM; U937 cells; multiple values = duplicate experiments
# Procedure: Competition binding assays for C5a receptors were performed by incubation of differentiated U937 cells (200,000 cells/well), test compound (1% DMSO) and [^125I]-C5a (Bolton & Hunter labeled, Perkin Elmer, specific activity=2200 Ci/mmol, 0.05 nM final) in binding buffer consisting of 50 mM HEPES, 5 mM MgCl2, 1 mM CaCl2, 0.5% protease-free BSA, 0.02% NaN3, pH 7.4. 100× solutions of test compounds were prepared in DMSO and further diluted in binding buffer. Non-specific binding was defined in wells containing 100 nM recombinant C5a. Cells and compound were pre-incubated for 30 min at RT. After addition of the radioligand, further incubation for 60 min occurred at 4° C. Cells were harvested on GF/B filters—presoaked in 0.5% polyethylenimine, followed by washing with binding buffer containing 500 mM NaCl, pH 7.4. Filter bound radioactivity was determined by liquid scintillation counting. IC50 and Ki values were calculated using non-linear regression in Graphpad Prism. Ki is calculated using the equation of Cheng and Prusoff (Biochem. Pharmacol. 1973, 22: 3099-3108)
row,SMILES,inhibition at 1 µM
1,CCc1cccc(CC)c1-c1cc(OC)c2c(n1)CCCC2N1CCc2ccc(Cl)cc2C1 (stereo not shown) [Compound 51],83%
2,CCc1cccc(CC)c1-c1cc(OC)c2c(n1)CCCC2N(C)c1c(C)ccc2ccccc12 (stereo not shown) [Compound 52],86%
3,CCc1cccc(CC)c1-c1cc(OC)c2c(n1)CCCC2Nc1cc(Cl)ccc1C (stereo not shown) [Compound 53],85%
4,CCc1cccc(CC)c1-c1cc(OC)c2c(n1)CCCC2N(C)N1CCCc2ccccc21 (stereo not shown) [Compound 54],74%
5,CCc1cccc(CC)c1-c1cc(OC)c2c(n1)CCCC2N1CCc2c(Cl)cccc2C1 (stereo not shown) [Compound 56],84%
6,CCN(c1cccc2ccccc12)C1CCCc2nc(-c3ccccc3C(C)C)cc(OC)c21 (stereo not shown) [Compound 57],76%
7,COc1cc(-c2c(C)cccc2C)nc2c1C(N(C)c1cccc3ccccc13)CCC2 (stereo not shown) [Compound 61],76%
8,CCc1cccc(CC)c1-c1cc(OC)c2c(n1)CCCC2Nc1ccc(OC)cc1C (stereo not shown) [Compound 63],74%
9,CCc1cccc(CC)c1-c1cc(OC)c2c(n1)CCCC2Nc1cc(-c2ccccc2)ccc1C (stereo not shown) [Compound 66],83%
10,CCc1cccc(CC)c1-c1cc(OC)c2c(n1)CCCC2N(C)c1cc(Cl)ccc1C (stereo not shown) [Compound 67],82%
11,CCc1cccc(CC)c1-c1cc(OC)c2c(n1)CCCC2N(C)c1cc(OC)ccc1OC (stereo not shown) [Compound 68],66%
12,COc1ccc(C)c(N(C)C2CCCc3nc(-c4c(C)cccc4C)cc(OC)c32)c1 (stereo not shown) [Compound 69],76%
13,CCc1cccc(CC)c1-c1cc(OC)c2c(n1)CCCC2N(C)c1cccc2c1CCC2 (stereo not shown) [Compound 72],86%
14,CCc1cccc(CC)c1-c1cc(OC)c2c(n1)CCCC2Nc1ccccc1C#N (stereo not shown) [Compound 74],19%
15,CCN(c1cccc(C)c1C)C1CCCc2nc(-c3c(C)cccc3C)cc(OC)c21 (stereo not shown) [Compound 76],83%
16,CCc1cccc(CC)c1-c1cc(OC)c2c(n1)CCCC2N(C(C)=O)c1cccc2ccccc12 (stereo not shown) [Compound 79],49%
17,CCc1cccc(CC)c1-c1cc(OC)c2c(n1)CCCC2N(C)c1ccc(OC)cc1C (stereo not shown) [Compound 80],80%
18,CCc1cccc(CC)c1-c1cc(OC)c2c(n1)CCCC2Nc1cccc(OC)c1 (stereo not shown) [Compound 81],55%
19,CCc1cccc(CC)c1-c1cc(OC)c2c(n1)CCCC2OCc1ccccc1 (stereo not shown) [Compound 86],49%

# Same assay, conditions: read-out: [125I]-C5a Binding % Inhibition 10 μM, test compound 10 μM; [125I]-C5a 0.05 nM; U937 cells; multiple values = duplicate experiments
row,SMILES,inhibition at 10 µM
1,CCc1cccc(CC)c1-c1cc(OC)c2c(n1)CCCC2N1CCc2ccc(Cl)cc2C1 (stereo not shown) [Compound 51],89%
2,CCc1cccc(CC)c1-c1cc(OC)c2c(n1)CCCC2N(C)c1c(C)ccc2ccccc12 (stereo not shown) [Compound 52],86%
3,CCc1cccc(CC)c1-c1cc(OC)c2c(n1)CCCC2Nc1cc(Cl)ccc1C (stereo not shown) [Compound 53],91%
4,CCc1cccc(CC)c1-c1cc(OC)c2c(n1)CCCC2N(C)N1CCCc2ccccc21 (stereo not shown) [Compound 54],87%
5,CCc1cccc(CC)c1-c1cc(OC)c2c(n1)CCCC2N1CCc2c(Cl)cccc2C1 (stereo not shown) [Compound 56],85%
6,CCN(c1cccc2ccccc12)C1CCCc2nc(-c3ccccc3C(C)C)cc(OC)c21 (stereo not shown) [Compound 57],89%
7,COc1cc(-c2c(C)cccc2C)nc2c1C(N(C)c1cccc3ccccc13)CCC2 (stereo not shown) [Compound 61],88%
8,CCc1cccc(CC)c1-c1cc(OC)c2c(n1)CCCC2Nc1ccc(OC)cc1C (stereo not shown) [Compound 63],82%
9,CCc1cccc(CC)c1-c1cc(OC)c2c(n1)CCCC2Nc1cc(-c2ccccc2)ccc1C (stereo not shown) [Compound 66],88%
10,CCc1cccc(CC)c1-c1cc(OC)c2c(n1)CCCC2N(C)c1cc(Cl)ccc1C (stereo not shown) [Compound 67],86%
11,CCc1cccc(CC)c1-c1cc(OC)c2c(n1)CCCC2N(C)c1cc(OC)ccc1OC (stereo not shown) [Compound 68],76%
12,COc1ccc(C)c(N(C)C2CCCc3nc(-c4c(C)cccc4C)cc(OC)c32)c1 (stereo not shown) [Compound 69],85%
13,CCc1cccc(CC)c1-c1cc(OC)c2c(n1)CCCC2N(C)c1cccc2c1CCC2 (stereo not shown) [Compound 72],85%
14,CCc1cccc(CC)c1-c1cc(OC)c2c(n1)CCCC2Nc1ccccc1C#N (stereo not shown) [Compound 74],52%
15,CCN(c1cccc(C)c1C)C1CCCc2nc(-c3c(C)cccc3C)cc(OC)c21 (stereo not shown) [Compound 76],85%
16,CCc1cccc(CC)c1-c1cc(OC)c2c(n1)CCCC2N(C(C)=O)c1cccc2ccccc12 (stereo not shown) [Compound 79],78%
17,CCc1cccc(CC)c1-c1cc(OC)c2c(n1)CCCC2N(C)c1ccc(OC)cc1C (stereo not shown) [Compound 80],81%
18,CCc1cccc(CC)c1-c1cc(OC)c2c(n1)CCCC2Nc1cccc(OC)c1 (stereo not shown) [Compound 81],71%
19,CCc1cccc(CC)c1-c1cc(OC)c2c(n1)CCCC2OCc1ccccc1 (stereo not shown) [Compound 86],64%

# Same assay, conditions: test compound 1 μM; [125I]-C5a 0.05 nM; U937 cells; multiple values = duplicate experiments
row,SMILES,[125I]-C5a Binding % Inhibition 1 μM
1,CCc1cccc(CC)c1-c1cc(OC)c2c(n1)CCCC2N1CCCc2ccccc21 (stereo not shown) [Compound 65],−7% and 1%
2,CCc1cccc(CC)c1-c1cc(OC)c2c(n1)CCCC2N(C)C1CCCc2ccccc21 (stereo not shown) [Compound 83],51%

# Same assay, conditions: test compound 10 μM; [125I]-C5a 0.05 nM; U937 cells; multiple values = duplicate experiments
row,SMILES,[125I]-C5a Binding % Inhibition 10 μM
1,CCc1cccc(CC)c1-c1cc(OC)c2c(n1)CCC[C@@H]2N(C)[C@H]1CCCc2ccccc21 [Compound 77],72%
2,CCc1cccc(CC)c1-c1cc(OC)c2c(n1)CCCC2N(C)C1CCCc2ccccc21 (stereo not shown) [Compound 83],71%
